Experimental data published in patent US10745395B2, “Compounds for their use as drugs for the treatment and/or the prevention of infection(s) caused by biofilm-forming bacteria” (CENTRE NATIONAL DE LA RECHERCHE SCIENTIFIQUE, priority 2014, dated 2020).

What was measured:
Assay type in all cases: cell-based, Pseudomonas aeruginosa
[1] = test system: P. aeruginosa strain PAR 20 biofilm; test: Early biofilm model, Congo red staining; settings: for absorbance (Congo red, biofilm formation): early biofilm, 0.9 mM, 492 nm
Description: (§1) P. aeruginosa biofilm was set-up in sterile plastic 96-well plates with adherent surface (Greiner Bio-One, USA).
(§2) Twenty microliter quantities of the bacterial stock suspensions, prepared as described above, were added to each well followed with 180 μl of sterile TSB. Final concentration of the bacteria was 1×10^8 CFU/ml.
(§3) The plates were centrifuged for 10 minutes at 2000 rpm to sediment bacteria on the bottom of each well and then incubated for 72 hours (37° C., aerobic conditions).
(§4) Biofilm quantity was determined using Congo red dye according to a modified procedure described by Allison et al. (Allison G C, Sutherland I W. A staining technique for bacteria and its correlation to extracellular carbohydrate production. J Microbiol Meth 2, 93-99 (1984)).
(§5) Briefly, at different time points (0, 6, 18, 24, 48 and 72 hours), the culture medium was gently removed from wells by using the pipette and immediately 200 μl of 0.1% Congo red solution was added. The plates were left for 30 minutes at room temperature and then 10 minutes before the end of staining, the plate was centrifuged for 10 minutes at 2000 rpm and then washed twice with buffered saline to remove unbound dye. Absorbance was measured at λ=492 nm wavelength using spectrophotometer (Awarness Technology Inc., Palm City, Fla., USA). All measurements were performed in triplicates and mean values±SD are given.
(§6) Early biofilm model: formation of early biofilm under influence of the tested substances was observed by filling wells of a 96-well plate with 20 μl of P. aeruginosa suspension and 180 μl of TSB, as described above. Tested iminosugars (compounds 1, 2, 3 and 4) were added immediately after setting-up the bacteria at a final concentration of 0.9 mM. Then, the plate was gently mixed and incubated for 48 hours at 37° C.
(§7) Biofilm formation and the number of viable bacteria were checked in parallel in the following time intervals: 0, 0.5, 8, 24, 48 hours, in accordance with the procedure described above. Biofilm thickness was estimated by staining it with Cango Red and measuring optical density while number of viable bacteria was performed using the standard viable count method. (Allison G C, Sutherland I W. A staining technique for bacteria and its correlation to extracellular carbohydrate production. J Microbiol Meth 2, 93-99 (1984)).
(§8) P. aeruginosa suspension cultures in TSB broth alone were used as a control.

[2] = test system: P. aeruginosa strain PAR 5 biofilm; test: Early biofilm model, Congo red staining; settings: for absorbance (Congo red, biofilm formation): 0.9 mM, 492 nm
Description: as §1, §2, §3, §4, §5, §6, §7, §8

[3] = test system: P. aeruginosa strain PAR 50 biofilm; test: Early biofilm model, Congo red staining; settings: for absorbance (Congo red, biofilm formation): early biofilm, 0.9 mM, 492 nm
Description: as §1, §2, §3, §4, §5, §6, §7, §8

[4] = test system: P. aeruginosa strain PAR 20 biofilm; test: Mature biofilm model, Congo red staining; settings: for absorbance (Congo red, biofilm development): mature biofilm, compound added 48 h after induction of biofilm
Description: as §4, §5
(§9) Mature biofilm model: the tested substances were added 48 hours after adherence of bacteria to the wells in a 96-well plate. The growth conditions of P. aeruginosa were exactly the same, as described above for the early biofilm model.
(§10) After the addition of iminosugars (compounds 1, 2, 3 and 4), the biofilm formation and the number of viable bacteria were checked in the following time intervals: 48, 48.5, 56, 72, 96 hours.

[5] = test system: P. aeruginosa strain PAR 5 biofilm; test: Mature biofilm model, Congo red staining; settings: for absorbance (Congo red, biofilm development): mature biofilm, compound added 48 h after induction of biofilm
Description: as §4, §5, §9, §10

[6] = test system: P. aeruginosa strain PAR 50 biofilm; test: Mature biofilm model, Congo red staining; settings: for absorbance (Congo red, biofilm development): mature biofilm, compound added 48 h after induction of biofilm
Description: as §4, §5, §9, §10

[7] = test system: P. aeruginosa strain PAR 20; test: Number of viable bacteria in early and mature biofilm (viable count)
Description: as §7, §10
(§11) Numbers of viable bacteria contained in the early and mature biofilm were estimated on separate plates with wells filled with tested P. aeruginosa strains as described above (PAR 5, PAR 20, PAR 50).
(§12) At the same time intervals, biofilm content in each well was removed and mixed by multiple pippeting and transferred to sterile tubes. Then decimal dilutions of the bacterial suspension were made in TSB broth, plated on McConkey Agar (Oxoid), and incubated at 37° C. for 24 hours.
(§13) Numbers of colonies grown on platter were counted and total numbers of the viable bacteria calculated as colony forming units (CFU) per ml.
(§14) The results depict logs of CFU/ml for three P. aeruginosa strains: PAR 5, PAR 20 and PAR 50 measured at different time intervals (0 hours, 8 hours, 24 hours, 48 hours, 56 hours, 72 hours and 96 hours). The detection limit is 100 CFU/ml.

[8] = test system: P. aeruginosa strain PAR 50; test: as above
Description: as §7, §10, §11, §12, §13, §14

[9] = test system: P. aeruginosa strain PAR 5; test: as above
Description: as §7, §10, §11, §12, §13, §14

[10] = test system: P. aeruginosa strain PAR 5 biofilm; test: Reduction of biofilm growth (percent vs culture control)
From the text: (§15) FIG. 4A represents the effect of the tested compounds (1, 2, 3 and 4) on exopolysaccharide biosynthesis in the early stages and mature P. aeruginosa biofilm formation, strain PAR 5. The abscissa represents the time (in hours) in order to differentiate early biofilm and mature biofilm, and the ordinate represents the percentage of the biofilm reduction.
as §6, §9
(§16) The effect of the tested compounds (1, 2, 3 and 4) on the reduction of biofilm growth has also been studied on the three P. aeruginosa strains PAR 5, PAR 20, PAR 50.
(§17) (Percent decrease in biofilm thickness was obtained as a mean value from 3 consecutive measurements of the Congo Red stained biofilm using spectrophotometer after addition of the tested iminosugars in comparison to control regarded as 100%).

[11] = test system: P. aeruginosa strain PAR 20 biofilm; test: as above
From the text: as §15, with “4B” for “4A”, “20.” for “5.”
as §6, §9, §16, §17

[12] = test system: P. aeruginosa strain PAR 50 biofilm; test: as above
From the text: as §15, with “4C” for “4A”, “50.” for “5.”
as §6, §9, §16, §17

[13] = in comparison with culture control

COc1ccc(C[C@@H]2CCC[C@@H]3[C@H](O)[C@@H](O)[C@H](CO)N23)cc1 [Compound 3, (1S,2S,3S,5S,9R)-1,2-dihydroxy-3-hydroxymethyl-5-p-methoxybenzylindolizidine]
absorbance (Congo red, biofilm formation) ([1]; 8 hours): about 0.75 a.u.
absorbance (Congo red, biofilm formation) ([1]; 24 hours): about 0.7 a.u.
absorbance (Congo red, biofilm formation) ([1]; 48 hours): about 0.7 a.u.
effect on formation of an early biofilm [1, 13]: inhibit the formation of an early biofilm
biofilm formation at 8 hours, 24 hours and 48 hours ([2]; early biofilm): no biofilm formation
absorbance (Congo red, biofilm formation) ([2]; early biofilm, 8 hours): about 0.25 a.u.
absorbance (Congo red, biofilm formation) ([2]; early biofilm, 24 hours): about 0.25 a.u.
absorbance (Congo red, biofilm formation) ([2]; early biofilm, 48 hours): about 0.25 a.u.
effect on formation of an early biofilm [2, 13]: inhibit the formation of an early biofilm
absorbance (Congo red, biofilm formation) ([3]; 8 hours): about 0.8 a.u.
absorbance (Congo red, biofilm formation) ([3]; 24 hours): about 0.25 a.u.
absorbance (Congo red, biofilm formation) ([3]; 48 hours): about 0.25 a.u.
effect on formation of an early biofilm [3, 13]: inhibit the formation of an early biofilm
influence on mature biofilm formation [4]: weak influence
absorbance (Congo red, biofilm development) ([4]; 48 hours): about 0.6 a.u.
absorbance (Congo red, biofilm development) ([4]; 56 hours): about 1.1 a.u.
absorbance (Congo red, biofilm development) ([4]; 72 hours): about 0.75 a.u.
absorbance (Congo red, biofilm development) ([4]; 96 hours): about 1.5 a.u.
influence on mature biofilm formation [5]: weak influence
absorbance (Congo red, biofilm development) ([5]; 48 hours): about 0.75 a.u.
absorbance (Congo red, biofilm development) ([5]; 56 hours): about 1.25 a.u.
absorbance (Congo red, biofilm development) ([5]; 72 hours): about 1.25 a.u.
absorbance (Congo red, biofilm development) ([5]; 96 hours): about 1.25 a.u.
influence on mature biofilm formation [6]: weak influence
absorbance (Congo red, biofilm development) ([6]; 48 hours): about 1.25 a.u.
absorbance (Congo red, biofilm development) ([6]; 56 hours): about 1.0 a.u.
absorbance (Congo red, biofilm development) ([6]; 72 hours): about 2.0 a.u.
absorbance (Congo red, biofilm development) ([6]; 96 hours): about 2.5 a.u.
number of viable P. aeruginosa ([7]; early biofilm, 0 h): 5 × 10^6 CFU/ml
number of viable P. aeruginosa ([7]; early biofilm, 8 h): 3 × 10^7 CFU/ml
number of viable P. aeruginosa ([7]; early biofilm, 24 h): 5 × 10^8 CFU/ml
number of viable P. aeruginosa ([7]; early biofilm, 48 h): 3 × 10^9 CFU/ml
number of viable P. aeruginosa ([7]; mature biofilm, 56 h): 3 × 10^8 CFU/ml
number of viable P. aeruginosa ([7]; mature biofilm, 72 h): 7 × 10^7 CFU/ml
number of viable P. aeruginosa ([7]; mature biofilm, 96 h): 7 × 10^7 CFU/ml
number of viable P. aeruginosa ([8]; early biofilm, 0 h): 4 × 10^7 CFU/ml
number of viable P. aeruginosa ([8]; early biofilm, 8 h): 1 × 10^8 CFU/ml
number of viable P. aeruginosa ([8]; early biofilm, 24 h): 6 × 10^8 CFU/ml
number of viable P. aeruginosa ([8]; early biofilm, 48 h): 6 × 10^8 CFU/ml
number of viable P. aeruginosa ([8]; mature biofilm, 56 h): 4 × 10^8 CFU/ml
number of viable P. aeruginosa ([8]; mature biofilm, 72 h): 5 × 10^9 CFU/ml
number of viable P. aeruginosa ([8]; mature biofilm, 96 h): 8 × 10^9 CFU/ml
number of viable P. aeruginosa ([9]; early biofilm, 0 h): 6 × 10^6 CFU/ml
number of viable P. aeruginosa ([9]; early biofilm, 8 h): 4 × 10^7 CFU/ml
number of viable P. aeruginosa ([9]; early biofilm, 24 h): 1 × 10^7 CFU/ml
number of viable P. aeruginosa ([9]; early biofilm, 48 h): 2 × 10^6 CFU/ml
number of viable P. aeruginosa ([9]; mature biofilm, 56 h): 3 × 10^8 CFU/ml
number of viable P. aeruginosa ([9]; mature biofilm, 72 h): 2 × 10^8 CFU/ml
number of viable P. aeruginosa ([9]; mature biofilm, 96 h): 1 × 10^9 CFU/ml
reduction of biofilm growth ([10]; 8 hours of incubation): about 90%
reduction of biofilm growth ([10]; 24 hours of incubation): about 90%
reduction of biofilm growth ([10]; 48 hours of incubation): about 25%
reduction of biofilm growth ([10]; 72 hours of incubation): about 10%
effect on biofilm growth ([10]; notably an early biofilm): can reduce the biofilm growth
reduction of biofilm growth ([11]; 8 hours of incubation): about 50%
reduction of biofilm growth ([11]; 24 hours of incubation): about 60%
reduction of biofilm growth ([11]; 48 hours of incubation): about 0%
reduction of biofilm growth ([11]; 72 hours of incubation): about 20%
effect on biofilm growth ([11]; notably an early biofilm): can reduce the biofilm growth
reduction of biofilm growth ([12]; 8 hours of incubation): about 45%
reduction of biofilm growth ([12]; 24 hours of incubation): about 45%
reduction of biofilm growth ([12]; 48 hours of incubation): about 5%
reduction of biofilm growth ([12]; 72 hours of incubation): about 20%
effect on biofilm growth ([12]; notably an early biofilm): can reduce the biofilm growth
